These results are taken from patent US20240041047A1, “ENHANCED ANTIMICROBIAL EFFICACY (SYNERGY) OF SILVER AND COPPER COMPOUNDS AND MEDICAL USE OF THEIR COMBINATIONS” (Nanordica Medical OÜ, priority 2021, published 2024).

For one test, the system named is E. coli K-12 (G−). The test is described as follows: MBC of Ag NPs, Cu compounds and combinations, 24 h incubation, plated on agarized broth. The class given is cell-based, Escherichia coli.
The subject of test [1] is E. faecalis ATCC 29212 (G+). Described as above. The class given is cell-based, Enterococcus faecalis.
For a further test, the system named is P. aeruginosa PAO1 (G−). The test is described as above. The class given is cell-based, Pseudomonas aeruginosa.
For the next test, the system named is E. coli ESBL (G−). The test is described as above. The class given is cell-based, Escherichia coli.
In test [2] the test system is S. aureus ATCC 25923 (G+). Described as above. It is filed as cell-based, Staphylococcus aureus.
The test system of test [3] is S. dysgalacticae DSM 23147 (G+). The test is described as above. It is filed as cell-based.
The subject of test [4] is Gram-negative and Gram-positive bacteria commonly colonizing wounds. The test is described as follows: Antibacterial synergy K(Syn) of Ag and Cu compounds across bacterial strains (FIG. 3, FIG. 5). It is filed as cell-based. As to the method:
FIGS. 3A and 3B show the synergistic effect of CuO NPs and CuSO4 with Ag NPs (A) or AgNO3 (B) to a range of Gram-negative and Gram-positive bacteria commonly colonizing wounds. Bacterial suspension was incubated with Ag NPs, CuO NPs, respective ions or their combinations for 24 h, plated on agarized broth, and MBC was determined.
In order to quantify and compare the synergistic effect between different Ag and Cu compounds and among various bacterial strains, we introduced the term “Coefficient of antimicrobial synergy”, K(Syn), showing the antimicrobial efficiency of Ag compound and Cu compound combinations (mix) compared to the sum of the MBC values of individual compounds and calculated as follows: […]
In order to quantify and compare the synergistic effect between different Ag NPs and Copper compounds among various bacterial strains, we introduced the term “Coefficient of antibacterial synergy”, K(Syn), showing the antimicrobial efficiency of Ag- and copper compound combinations (mix) compared to the sum of the MBC values of individual Ag- and Cu compounds and calculated as follows: […]
Bacterial suspensions were incubated with Ag NPs, CuO NPs, respective ions or their combinations for 24 h, plated on agarized broth, and MBC was determined. […]

SMILES strings stand for the structures.

Take `O=S(=O)([O-])[O-].[Cu+2]` [CuSO4]: the “K (Syn)” value was 5.055 ± 0.383 in the test on E. coli K-12 (G−) (E. coli K-12, Cu compound + Ag NPs); 4.254 ± 0.977 in test [1] (E. faecalis ATCC 29212, Cu compound + Ag NPs); 2.783 ± 0.687 in the test on P. aeruginosa PAO1 (G−) (P. aeruginosa PAO1, Cu compound + Ag NPs); 4.727 ± 0.63 in the test with E. coli ESBL (G−) (Cu compound + Ag NPs); 3.659 ± 1.083 in test [2] (S. aureus ATCC 25923, Cu compound + Ag NPs); 3.909 ± 0.832 in test [3] (S. dysgalacticae DSM 23147, Cu compound + Ag NPs). Also, the “MBC (CuX) in combination” value in the test on E. coli K-12 (G−) (E. coli K-12, Cu compound in combination with Ag NPs) worked out at 22.5 ± 16.3 µg/mL; in test [1] (E. faecalis ATCC 29212, Cu compound in combination with Ag NPs) it was 20.83 ± 7.22 µg/mL; in the test on P. aeruginosa PAO1 (G−) (P. aeruginosa PAO1, Cu compound in combination with Ag NPs), 20 ± 6.85 µg/mL; with E. coli ESBL (G−) (Cu compound in combination with Ag NPs), 25 ± 0 µg/mL; in test [2] (S. aureus ATCC 25923, Cu compound in combination with Ag NPs), 16.25 ± 8.39 µg/mL; in test [3] (S. dysgalacticae DSM 23147, Cu compound in combination with Ag NPs), 12.5 ± 0 µg/mL. In addition, the MBC alone in the test with E. coli K-12 (G−) (E. coli K-12, compound alone) amounted to 217.6 ± 72.8 µg/mL; in test [1] (E. faecalis ATCC 29212, compound alone), 200 ± 0 µg/mL; in the test on P. aeruginosa PAO1 (G−) (P. aeruginosa PAO1, compound alone), 720 ± 178.9 µg/mL; in the test with E. coli ESBL (G−) (compound alone), 200 ± 0 µg/mL; in test [2] (S. aureus ATCC 25923, compound alone), 90 ± 22.36 µg/mL; in test [3] (S. dysgalacticae DSM 23147, compound alone) it was 133.3 ± 57.7 µg/mL. The “synergy with Ag NPs, K(Syn), ranking among Cu compounds” value in test [4] (all tested bacterial strains (FIG. 3A)) is recorded as “highest”.

As to `O=[N+]([O-])[O-].[Ag+]` [AgNO3, reference compound], the “synergistic effect with Cu compounds compared with Ag NPs” value in test [4] (ionic silver used instead of Ag NPs (FIG. 3B)) was “considerably lower”.
